Experimental data from patent US20240190872A1, “FABI INHIBITORS FOR GRAM-NEGATIVE PATHOGENS” (THE BOARD OF TRUSTEES OF THE UNIVERSITY OF ILLINOIS, priority 2021, published 2024).
≈ marks a conversion by molar mass, not a printed value. Where two headings read alike, the source gives them in different places.

Key:
[1] = Pharmacokinetic study in neutropenic infected mice
[2] = test system: S. aureus ATCC 29213; assay: Antimicrobial susceptibility test (MIC), micro-dilution broth; assay type: cell-based; settings: Staphylococcus aureus, ATCC29213; S. aureus ATCC 29213; read-out: MIC S. aureus 29213
Outline: (§1)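 CLSI micro-dilution broth method in cation-adjusted Mueller-Hinton broth, in biological triplicate; human serum (pooled, filtered) was also used.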

[3] = female, BALB/c, mouse, in vivo, 100 mg/kg
[4] = target: HERG (Homo sapiens (Human), UniProt Q12809); assay: cell-based
HERG, sequence (Q12809 whole entry): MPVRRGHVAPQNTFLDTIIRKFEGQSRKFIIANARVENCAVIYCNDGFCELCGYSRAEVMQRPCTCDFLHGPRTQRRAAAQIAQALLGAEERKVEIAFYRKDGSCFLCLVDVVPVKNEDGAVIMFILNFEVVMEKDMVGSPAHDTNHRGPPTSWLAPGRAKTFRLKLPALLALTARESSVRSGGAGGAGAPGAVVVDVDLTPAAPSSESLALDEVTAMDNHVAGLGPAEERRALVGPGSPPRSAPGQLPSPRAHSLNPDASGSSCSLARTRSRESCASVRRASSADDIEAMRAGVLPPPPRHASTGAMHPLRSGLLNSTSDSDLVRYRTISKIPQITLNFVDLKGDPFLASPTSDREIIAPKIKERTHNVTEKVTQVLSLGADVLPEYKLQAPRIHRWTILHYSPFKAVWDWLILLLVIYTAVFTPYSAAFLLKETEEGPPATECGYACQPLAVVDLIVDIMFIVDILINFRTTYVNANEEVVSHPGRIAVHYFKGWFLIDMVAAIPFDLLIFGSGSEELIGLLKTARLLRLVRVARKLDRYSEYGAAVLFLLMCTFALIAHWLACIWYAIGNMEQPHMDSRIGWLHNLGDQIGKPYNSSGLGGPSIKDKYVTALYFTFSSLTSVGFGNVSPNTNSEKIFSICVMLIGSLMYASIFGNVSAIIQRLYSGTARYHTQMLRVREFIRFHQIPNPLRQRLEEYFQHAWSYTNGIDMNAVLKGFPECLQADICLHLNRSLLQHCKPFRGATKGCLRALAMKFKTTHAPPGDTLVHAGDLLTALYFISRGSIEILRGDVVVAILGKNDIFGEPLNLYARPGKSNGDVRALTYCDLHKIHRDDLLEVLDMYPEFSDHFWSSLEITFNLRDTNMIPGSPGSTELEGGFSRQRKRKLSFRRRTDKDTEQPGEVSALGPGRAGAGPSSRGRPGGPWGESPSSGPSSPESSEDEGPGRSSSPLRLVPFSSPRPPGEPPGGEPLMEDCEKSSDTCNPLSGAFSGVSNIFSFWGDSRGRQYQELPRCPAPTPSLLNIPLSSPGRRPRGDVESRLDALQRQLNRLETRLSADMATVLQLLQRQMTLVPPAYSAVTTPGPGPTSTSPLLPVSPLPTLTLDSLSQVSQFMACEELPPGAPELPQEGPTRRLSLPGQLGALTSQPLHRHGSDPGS

[5] = test system: K. pneumoniae BAA 2472; assay: microbe, parasite or virus in culture; assay type: cell-based; settings: Klebsiella pneumoniae, BAA2472, read-out: MIC K. pneumoniae BAA 2472, clinical isolate
Outline: (§2)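 MICs by CLSI broth microdilution in cation-adjusted Mueller-Hinton broth, performed in biological triplicate. Strains: efflux-deficient E. coli ΔtolC (JW5503, KEIO collection) and K. pneumoniae BAA-2472 (ATCC).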

[6] = test system: E. coli ΔtolC (JW5503); assay type: cell-based; settings: efflux deficient E. coli ΔtolC
Outline: as §2

[7] = Plasma protein binding
[8] = test system: carbapenem resistant E. coli; assay: MIC against infecting strain of the UTI model; assay type: cell-based; settings: Escherichia coli; extensively resistant carbapenem resistant E. coli of UTI model
Procedure: UTIs represent one of the biggest risks for healthy individuals in terms of exposure to antibiotic-resistant bacteria and many individuals contract one in their lifetime (roughly 1 in 2 women and 1 in 10 men); as such, these infections from Gram-negative pathogens, particularly those that are drug-resistant, remain a major clinical challenge. As E. coli is the causative agent in the great majority of UTIs fabimycin was evaluated in a murine UTI model with a challenging, extensively resistant strain of carbapenem resistant E. coli (fabimycin MIC=2 μg/mL). When dosed at 33.3 mg/kg, TID fabimycin was able to achieve 3.0, 2.8, 2.9, and 1.9 log10 reductions in bacterial load relative to the vehicle in the spleen, bladder, liver, and kidneys tissues, respectively (FIG. 4).

[9] = test system: E. coli MG1655 FabI mutant; assay: MIC against fabimycin-resistant E. coli MG1655 colonies (FabI mutants); assay type: cell-based; settings: Escherichia coli
Procedure: Selection of resistant mutants. Resistant mutants were selected via the large inoculum method. Briefly, E. coli MG1655 (1.8×10^9 CFU) were plated on 100 mm plates of LB agar containing 64, 32, and 16 μg/mL Debio-1452-NH3. […] Resistant colonies were confirmed by streaking on selective media with the same concentration of Debio-1452-NH3.

[10] = target: CYP 3A4 (Homo sapiens (Human), UniProt P08684); assay: biochemical
CYP 3A4, sequence (P08684 whole entry): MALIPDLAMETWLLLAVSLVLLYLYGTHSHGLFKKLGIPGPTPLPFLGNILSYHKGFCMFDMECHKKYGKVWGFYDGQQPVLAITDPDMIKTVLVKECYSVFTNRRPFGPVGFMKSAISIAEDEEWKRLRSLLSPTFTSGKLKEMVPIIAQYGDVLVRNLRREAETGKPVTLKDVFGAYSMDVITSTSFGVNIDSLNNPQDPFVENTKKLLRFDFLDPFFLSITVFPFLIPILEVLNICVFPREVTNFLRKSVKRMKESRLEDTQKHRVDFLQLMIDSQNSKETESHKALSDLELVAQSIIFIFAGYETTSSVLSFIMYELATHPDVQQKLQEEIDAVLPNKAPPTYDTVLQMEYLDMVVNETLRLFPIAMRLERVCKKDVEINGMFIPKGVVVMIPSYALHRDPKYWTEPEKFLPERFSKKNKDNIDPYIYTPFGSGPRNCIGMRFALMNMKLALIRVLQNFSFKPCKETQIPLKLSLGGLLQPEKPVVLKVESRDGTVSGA

[11] = Plasma protein binding; remark: listed apart in the source
[12] = target: CYP 1A2 (Homo sapiens (Human), UniProt P05177); assay: CYP inhibition
CYP 1A2, sequence (P05177 whole entry): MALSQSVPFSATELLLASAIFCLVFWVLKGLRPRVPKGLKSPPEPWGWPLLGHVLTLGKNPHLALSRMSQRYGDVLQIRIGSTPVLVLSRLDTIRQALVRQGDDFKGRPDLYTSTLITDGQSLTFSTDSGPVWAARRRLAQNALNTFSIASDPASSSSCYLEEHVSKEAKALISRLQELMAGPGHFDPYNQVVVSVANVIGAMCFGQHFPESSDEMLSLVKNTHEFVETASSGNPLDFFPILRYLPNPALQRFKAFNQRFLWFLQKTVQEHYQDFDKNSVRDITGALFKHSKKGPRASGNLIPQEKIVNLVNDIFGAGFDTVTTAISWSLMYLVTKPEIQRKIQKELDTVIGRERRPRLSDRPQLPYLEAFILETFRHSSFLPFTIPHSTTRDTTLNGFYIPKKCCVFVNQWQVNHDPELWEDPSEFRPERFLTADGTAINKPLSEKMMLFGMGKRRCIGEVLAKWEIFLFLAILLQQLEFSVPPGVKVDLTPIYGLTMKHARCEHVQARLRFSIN

[13] = test system: E. coli MG1655; assay: Antimicrobial susceptibility test (MIC); assay type: cell-based; settings: Escherichia coli, MG1655
Outline: as §1

[14] = test system: 100 A. baumannii clinical isolates; assay: MIC90 against 100 A. baumannii clinical isolates; assay type: cell-based; settings: Acinetobacter baumannii
Procedure: Antimicrobial susceptibility tests. Susceptibility testing was performed in biological triplicate, using the micro-dilution broth method as outlined by the Clinical and Laboratory Standards Institute. Bacteria were cultured with cation-adjusted Muller-Hinton broth (Sigma-Aldrich, Cat# 90922) in round-bottom 96-well plates (Corning, Cat# 3788). Human serum (pooled gender, 0.2 μm filtered) was purchased from BioIVT (Hicksville, NY).

Cc1c(CN(C)C(=O)/C=C/c2cnc3c(c2)CC[C@H](N)C(=O)N3)oc2ccccc12 [(S)-11, (S,E)-3-(7-amino-8-oxo-6,7,8,9-tetrahydro-5H-pyrido[2,3-b]azepin-3-yl)-N-methyl-N-((3-methylbenzofuran-2-yl)methyl)acrylamide]
AUClast ([1]; PLASMA, 75 mg/kg IV): 45.4 µg·h/mL | CL ([1]; PLASMA, 75 mg/kg IV): 26.9 mL/min/kg | Cmax ([1]; PLASMA, 75 mg/kg IV): 34.6 µg/mL | AUClast ([1]; PLASMA, 100 mg/kg IV): 69.8 µg·h/mL | CL ([1]; PLASMA, 100 mg/kg IV): 23.5 mL/min/kg | Cmax ([1]; PLASMA, 100 mg/kg IV): 47.3 µg/mL | AUClast ([1]; THIGH, 75 mg/kg IV): 65.2 µg·h/mL | CL ([1]; THIGH, 75 mg/kg IV): 18.9 mL/min/kg | Cmax ([1]; THIGH, 75 mg/kg IV): 33.0 µg/g | AUClast ([1]; THIGH, 100 mg/kg IV): 112 µg·h/mL | CL ([1]; THIGH, 100 mg/kg IV): 14.7 mL/min/kg | Cmax ([1]; THIGH, 100 mg/kg IV): 60.2 µg/g | MIC [2]: 4 ng/mL (≈ 0.00989 µM) | time concentrations stayed above the MIC for the infectious strain [3]: over 7 hours | IC50 [4]: 21.8 µM | MIC [5]: 4 µg/mL (≈ 9.89 µM) | MIC E. coli ΔtolC [6]: 0.016 µg/mL (≈ 0.0396 µM) | Plasma protein binding, Human ([7]; Human): 94% | fraction unbound ([7]; human, plasma): 0.06 | MIC [8]: 2 µg/mL (≈ 4.94 µM) | MIC ([9]; MG1655, read-out: MIC, FabI mutant G148A): 64 to 128 µg/mL (≈ 158 to 316 µM) | MIC ([9]; MG1655, read-out: MIC, FabI mutant H209P): 61 to 128 µg/mL (≈ 151 to 316 µM) | IC50 [10]: 7 µM | Plasma protein binding, Mouse ([11]; Mouse): 96% | fraction unbound ([11]; mouse, plasma): 0.04 | IC50 [12]: 31 µM | MIC [13]: 2 µg/mL (≈ 4.94 µM) | MIC90 [14]: 8 µg/mL (≈ 19.8 µM)
